The results in this text go back to patent publication US20260174786A1, “A NITROGEN-CONTAINING SPIROCYCLIC COMPOUND, PHARMACEUTICAL COMPOSITION AND USE THEREOF” (Prime Gene Therapeutics Co., Ltd., priority 2022, published 2026).

As a reminder, the inhibition is the drop in the measured response relative to a control, in per cent. A higher inhibition goes with strong suppression.

Structures are written as SMILES.

The test has as its target T1, hTRPV3 (Homo sapiens, UniProt Q8NET8).
T1 construct: expressed in transfected cells; host or cells: HEK-293
T1 sequence (Q8NET8 1-790): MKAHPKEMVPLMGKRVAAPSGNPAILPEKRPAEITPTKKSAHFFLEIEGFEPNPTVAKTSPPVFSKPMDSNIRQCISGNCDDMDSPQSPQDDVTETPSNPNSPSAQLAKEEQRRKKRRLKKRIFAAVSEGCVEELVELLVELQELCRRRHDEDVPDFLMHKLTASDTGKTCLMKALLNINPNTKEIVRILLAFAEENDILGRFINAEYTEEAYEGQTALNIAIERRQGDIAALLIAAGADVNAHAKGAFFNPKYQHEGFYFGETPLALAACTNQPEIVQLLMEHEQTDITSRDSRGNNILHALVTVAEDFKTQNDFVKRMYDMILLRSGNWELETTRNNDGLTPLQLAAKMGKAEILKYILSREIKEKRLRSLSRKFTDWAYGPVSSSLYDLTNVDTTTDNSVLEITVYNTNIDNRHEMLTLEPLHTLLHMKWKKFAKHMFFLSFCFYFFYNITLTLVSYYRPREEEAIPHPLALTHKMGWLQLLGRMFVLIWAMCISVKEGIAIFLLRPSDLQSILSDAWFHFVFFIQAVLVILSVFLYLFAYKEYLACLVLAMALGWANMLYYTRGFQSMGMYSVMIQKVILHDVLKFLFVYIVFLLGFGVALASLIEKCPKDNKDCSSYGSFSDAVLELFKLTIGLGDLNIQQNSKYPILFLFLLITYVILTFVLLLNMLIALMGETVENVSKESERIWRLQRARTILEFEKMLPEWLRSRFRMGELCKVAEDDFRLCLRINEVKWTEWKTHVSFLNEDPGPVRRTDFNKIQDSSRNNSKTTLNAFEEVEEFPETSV
Description: Whole cell patch clamp inhibition rate test on HEK-293 cells instantaneously expressing TRPV3. Type of test: cell-based. As to conditions: HEK293; hTRPV3, single concentration 0.3 μM. How it is done: In this study, HEK-293 cells instantaneously expressing TRPV3 were used for experimental detection.
The operation steps are as follows:
The cells were cultured in DMEM medium containing 10% fetal bovine serum at a temperature of 37° C. and a carbon dioxide concentration of 5%.
Day 1: Cells were inoculated into a 6-well plate with 5×10^5 cells per well.
Day 2: Transfection was performed using Lipofectamine 3000 transfection reagent, with a plasmid to transfection reagent ratio of 1 μg: 2 μL. The total amount of plasmid used per well was 3 μg. Specifically, two sterile centrifuge tubes were taken and 100 μL Opti-MEM was added to each tube. 6 μL Lipofectamine 3000 was added to one tube and mixed well; and 3 μg plasmid was added to another tube and mixed well, and then 6 μL P3000 was added and mixed well; Subsequently, the diluted plasmid DNA was added to diluted Lipofectamine 3000 and incubated at room temperature for 10-15 min. DNA liposome complex was dropped into the cells, shaked gently and mixed well, and then cultured in an incubator. The liquid was changed after 4 to 6 h.
Day 3: The cells were digested and seeded into 24 well plates with pre-placed cover slides, with 8×10^3 cells per well.
Day 4: Patch clamp testing was performed.
The voltage stimulation protocol for recording TRPV3 current using whole cell patch clamp is as follows: after forming a whole cell seal, a cell membrane voltage clamp was set at −80 mV. Firstly, a membrane potential was recorded at 0 mV, and then a voltage was command to start from −100 mV, to depolarize in the form of Ramp to 100 mV within 100 ms, and finally restore to 0 mV. Data collection was repeated every 5 seconds to observe the inhibitory effect of pharmaceutical on peak current. Experimental data was collected by EPC 10 amplifier (HEKA) and stored in PatchMaster (HEKA) software.
A microelectrode puller was used to pull the capillary glass tube into a recording electrode. The electrode filled with intracellular fluid was inserted into a microelectrode holder, and a microelectrode manipulator was operated under an inverted microscope to immerse the electrode in extracellular fluid and an electrode resistance (Rpip) was recorded. The electrode was brought into contact with the cell surface and a negative pressure suction was applied to form a high resistance seal (GΩ). At this point, a fast capacitance compensation was performed, and negative pressure was continued to apply in order to break the cell membrane, so that a whole cell recording mode was formed. Then, a slow capacitance compensation was performed and experimental parameters such as film capacitance (Cm) and series resistance (Rs) were recorded. No leakage compensation was provided.
When the TRPV3 current recorded by the whole cell had stabilized, administration was started. Each pharmaceutical concentration acted for 5 minutes (or until the current stabilized) before detecting the next concentration. A plurality of concentrations was tested for each test compound. A cover glass covered with cells was placed in a recording bath under an inverted microscope. A blank control extracellular solution and a working fluid for the compound to be tested sequentially flowed through the recording bath from low concentration to high concentration using gravity perfusion to act on the cells. Liquid exchange was performed using a peristaltic pump during recording. The current detected by each cell in the extracellular fluid without the compound served as its own control group. Each concentration was independently tested twice using at least two cells. All electrophysiological tests were conducted at room temperature.
`CC(C)c1ccccc1-c1ccc2c(c1)[C@H](O)C[C@@]21CCN(C(=O)c2ccc(F)cn2)C1` [Example 25]: the inhibition at 0.3 µM fell in the range of 70 to 100%.
Regarding `CC(C)c1ccccc1-c1ccc2c(c1)[C@H](O)C[C@]21CCN(C(=O)c2ccc(F)cn2)C1` [Example 26], the inhibition at 0.3 µM is less than 25%.
As for `CC(C)c1ccccc1-c1ccc2c(c1)[C@@H](O)C[C@]21CCN(C(=O)c2ccc(F)cn2)C1` [Example 27], the inhibition at 0.3 µM is less than 25%.
As for `CC(C)c1ccccc1-c1ccc2c(c1)[C@@H](O)C[C@@]21CCN(C(=O)c2ccc(F)cn2)C1` [Example 28], the figure is less than 25%; as for `O=C(c1csc(Cl)n1)N1CC[C@@]2(C[C@@H](O)c3cc(-c4ccccc4C4CC4)ccc32)C1` [Example 29, (2-chlorothiazol-4-yl)((1S,3R)-5-(2-cyclopropylphenyl)-3-hydroxy-2,3-dihydrospiro[indene-1,3′-pyrrolidine]-1′-yl)ketone], 70 to 100%; as for `O=C(c1csc(Cl)n1)N1CC[C@]2(C[C@@H](O)c3cc(-c4ccccc4C4CC4)ccc32)C1` [Example 30, (2-chlorothiazol-4-yl)((1R,3R)-5-(2-cyclopropylphenyl)-3-hydroxy-2,3-dihydrospiro[indene-1,3′-pyrrolidine]-1′-yl)ketone], less than 25%.
As for `O=C(c1csc(Cl)n1)N1CC[C@@]2(C[C@H](O)c3cc(-c4ccccc4C4CC4)ccc32)C1` [Example 31, (2-chlorothiazol-4-yl)((1S,3S)-5-(2-cyclopropylphenyl)-3-hydroxy-2,3-dihydrospiro[indene-1,3′-pyrrolidine]-1′-yl)ketone], the figure is less than 25%; as for `O=C(c1csc(Cl)n1)N1CC[C@]2(C[C@H](O)c3cc(-c4ccccc4C4CC4)ccc32)C1` [Example 32, (2-chlorothiazol-4-yl)((1R,3S)-5-(2-cyclopropylphenyl)-3-hydroxy-2,3-dihydrospiro[indene-1,3′-pyrrolidine]-1′-yl)ketone], less than 25%.
As to `CC(C)c1ccccc1-c1ccc2c(c1)[C@H](O)C[C@@]21CCN(C(=O)c2csc(Cl)n2)C1` [Example 33, (2-chlorothiazol-4-yl)((1S,3R)-3-hydroxy-5-(2-isopropylphenyl)-2,3-dihydrospiro[indene-1,3′-pyrrolidine]-1′-yl)ketone], the inhibition at 0.3 µM fell in the range of 70 to 100%.
With `CC(C)c1ccccc1-c1ccc2c(c1)[C@H](O)C[C@]21CCN(C(=O)c2csc(Cl)n2)C1` [Example 34, (2-chlorothiazol-4-yl)((1R,3R)-3-hydroxy-5-(2-isopropylphenyl)-2,3-dihydrospiro[indene-1,3′-pyrrolidine]-1′-yl)ketone] the figure was less than 25%; with `CC(C)c1ccccc1-c1ccc2c(c1)[C@@H](O)C[C@@]21CCN(C(=O)c2csc(Cl)n2)C1` [Example 35, (2-chlorothiazol-4-yl)((1S,3S)-3-hydroxy-5-(2-isopropylphenyl)-2,3-dihydrospiro[indene-1,3′-pyrrolidine]-1′-yl)ketone], less than 25%.
With `CC(C)c1ccccc1-c1ccc2c(c1)[C@@H](O)C[C@]21CCN(C(=O)c2csc(Cl)n2)C1` [Example 36, (2-chlorothiazol-4-yl)((1R,3S)-3-hydroxy-5-(2-isopropylphenyl)-2,3-dihydrospiro[indene-1,3′-pyrrolidine]-1′-yl)ketone] the figure was less than 25%; with `O=C(c1cccc(C2CC2)n1)N1CC[C@@]2(C[C@@H](O)c3cc(-c4ccccc4C4CC4)ccc32)C1` [Example 37, ((1S,3R)-5-(2-cyclopropylphenyl)-3-hydroxy-2,3-dihydrospiro[indene-1,3′-pyrrolidine]-1′-yl)(6-cyclopropylpyridin-2-yl) ketone], 70 to 100%.
As for `O=C(c1cccc(C2CC2)n1)N1CC[C@]2(C[C@@H](O)c3cc(-c4ccccc4C4CC4)ccc32)C1` [Example 38, ((1R,3R)-5-(2-cyclopropylphenyl)-3-hydroxy-2,3-dihydrospiro[indene-1,3′-pyrrolidine]-1′-yl)(6-cyclopropylpyridin-2-yl) ketone], the figure is less than 25%; as for `O=C(c1cccc(C2CC2)n1)N1CC[C@@]2(C[C@H](O)c3cc(-c4ccccc4C4CC4)ccc32)C1` [Example 39, ((1S,3S)-5-(2-cyclopropylphenyl)-3-hydroxy-2,3-dihydrospiro[indene-1,3′-pyrrolidine]-1′-yl)(6-cyclopropylpyridin-2-yl) ketone], less than 25%.
Take `O=C(c1cccc(C2CC2)n1)N1CC[C@]2(C[C@H](O)c3cc(-c4ccccc4C4CC4)ccc32)C1` [Example 40, ((1R,3S)-5-(2-cyclopropylphenyl)-3-hydroxy-2,3-dihydrospiro[indene-1,3′-pyrrolidine]-1′-yl)(6-cyclopropylpyridin-2-yl) ketone]: the inhibition at 0.3 µM is less than 25%.
On to `CC(C)c1ccccc1-c1ccc2c(c1)[C@H](O)C[C@@]21CCN(C(=O)c2cccc(C3CC3)n2)C1` [Example 41, (6-cyclopropylpyridin-2-yl)((1S,3R)-3-hydroxy-5-(2-isopropylphenyl)-2,3-dihydrospiro[indene-1,3′-pyrrolidine]-1′-yl)ketone], for which the inhibition at 0.3 µM lay within 70 to 100%.
As for `CC(C)c1ccccc1-c1ccc2c(c1)[C@H](O)C[C@]21CCN(C(=O)c2cccc(C3CC3)n2)C1` [Example 42, (6-cyclopropylpyridin-2-yl)((1R,3R)-3-hydroxy-5-(2-isopropylphenyl)-2,3-dihydrospiro[indene-1,3′-pyrrolidine]-1′-yl)ketone], the figure is less than 25%; as for `CC(C)c1ccccc1-c1ccc2c(c1)[C@@H](O)C[C@@]21CCN(C(=O)c2cccc(C3CC3)n2)C1` [Example 43, (6-cyclopropylpyridin-2-yl)((1S,3S)-3-hydroxy-5-(2-isopropylphenyl)-2,3-dihydrospiro[indene-1,3′-pyrrolidine]-1′-yl)ketone], less than 25%; as for `CC(C)c1ccccc1-c1ccc2c(c1)[C@@H](O)C[C@]21CCN(C(=O)c2cccc(C3CC3)n2)C1` [Example 44, (6-cyclopropylpyridin-2-yl)((1R,3S)-3-hydroxy-5-(2-isopropylphenyl)-2,3-dihydrospiro[indene-1,3′-pyrrolidine]-1′-yl)ketone], less than 25%.
As for `O=C(c1ccc(F)cn1)N1CCC2(C[C@@H](O)c3cc(-c4ccccc4C4CC4)ccc32)C1` (stereo partly drawn) [Example 45, ((3R)-5-(2-cyclopropylphenyl)-3-hydroxy-2,3-dihydrospiro[indene-1,3′-pyrrolidine]-1′-yl)(5-fluoropyridin-2-yl) ketone], the figure is 70 to 100%.
As for `O=C(c1ccc(F)cn1)N1CCC2(C[C@H](O)c3cc(-c4ccccc4C4CC4)ccc32)C1` (stereo partly drawn) [Example 46, ((3S)-5-(2-cyclopropylphenyl)-3-hydroxy-2,3-dihydrospiro[indene-1,3′-pyrrolidine]-1′-yl)(5-fluoropyridin-2-yl) ketone], the figure is less than 25%.
